Test results as given in patent publication US12600940B2, “Strains and processes for single cell protein or biomass production” (priority 2019, dated 2026).
Converted amounts (≈) assume the structure as drawn.

Legend:
[1] = test system: Escherichia coli ATCC 25922; assay: Antibiotic susceptibility (MIC), quality control strain; assay type: cell-based; conditions: E. coli ATCC 25922, 18 h ± 2 h, aerobic, +35±2° C.; for MIC: Escherichia coli, ATCC25922, read-out: Minimum Inhibitory Concentration (MIC)
Method: (§1) Escherichia coli ATCC 25922 was used as quality control strain and it was incubated in aerobic conditions, at +35±2° C. for 18±2 hours.

VTT-E-193585 strain [2] = assay: Antibiotic susceptibility (MIC), CLSI M07 broth microdilution / agar dilution; assay type: cell-based, Xanthobacter sp.; conditions: VTT-E-193585, 48 h ± 1 h, aerobic, +35±2° C., cation-adjusted Mueller Hinton Broth, fosfomycin by agar dilution; for MIC: read-out: Minimum Inhibitory Concentration (MIC)
VTT-E-193585 strain [3] = assay: as above; assay type: cell-based, Xanthobacter sp.; conditions: comparison of MIC values of Table 5
Method: as §1

Row | Molecule | MIC [1] [µg/mL] | MIC (VTT-E-193585 strain [2]) [µg/mL] | MIC for VTT-E-193585 compared with E. coli ATCC 25922 (VTT-E-193585 strain [3]) | Minimum Inhibitory Concentration (MIC) [1] [µg/mL] | Minimum Inhibitory Concentration (MIC) (VTT-E-193585 strain [2]) [µg/mL]
1 | NC[C@H]1O[C@H](O[C@H]2[C@H](O)[C@@H](O[C@H]3O[C@H](CO)[C@@H](O)[C@H](N)[C@H]3O)[C@H](N)C[C@@H]2N)[C@H](O)[C@@H](O)[C@@H]1O [Kanamycin, kanamycin] | 4 (≈ 8.26 µM) | 2 (≈ 4.13 µM) |  |  | 
2 | [H]/N=C(/N)N[C@H]1[C@H](O)[C@@H](O)[C@H](O[C@@H]2O[C@@H](C)[C@](O)(C=O)[C@H]2O[C@@H]2O[C@@H](CO)[C@H](O)[C@@H](O)[C@@H]2NC)[C@@H](N/C(N)=N\[H])[C@@H]1O [Streptomycin, streptomycin] | 4 (≈ 6.88 µM) | 0.5 (≈ 0.86 µM) | lower or comparable |  | 
3 | CN(C)[C@@H]1C(O)=C(C(N)=O)C(=O)[C@@]2(O)C(O)=C3C(=O)c4c(O)cccc4[C@@](C)(O)[C@H]3C[C@@H]12 [Tetracycline, tetracycline] | 1 (≈ 2.25 µM) | 0.25 (≈ 0.563 µM) |  |  | 
4 | gentamicin |  |  | lower or comparable | 0.5 | 0.5
5 | CC1(C)S[C@@H]2[C@H](NC(=O)[C@H](N)c3ccccc3)C(=O)N2[C@H]1C(=O)O [Ampicillin, ampicillin] | 8 (≈ 22.9 µM) | 16 (≈ 45.8 µM) | higher |  | 
6 | colistin |  |  | higher | 2 | 4
7 | C[C@@H]1O[C@@H]1P(=O)(O)O [Fosfomycin, fosfomycin] | 0.5 (≈ 3.62 µM) | 32 (≈ 232 µM) | higher |  | 
